Test results reported in patent US6440986B2, “HIV Inhibiting pyrimidine derivatives” (Janssen Pharmaceutica, N.V., priority 1998, dated 2002).
Structures can show the parent of a compound that is named as a salt. Where two headings read alike, the source gives them in different places.

What was measured:
[1] = system: MT-4 cells (mock-infected); assay: cytotoxicity in mock-infected MT-4 cells (MTT); assay type: cell-based
Procedure: A rapid, sensitive and automated assay procedure was used for the in vitro evaluation of anti-HIV agents. […] Inhibition of the HIV-induced cytopathic effect was used as the end point. The viability of both HIV- and mock-infected cells was assessed spectrophotometrically via the in situ reduction of 3-(4,5-dimethylthiazol-2-yl)-2,5-diphenyltetrazolium bromide (MTT). […] The percent protection achieved by the compound in HIV-infected cells was calculated by the following formula: [formula]
(§1) whereby (ODT)HIV is the optical density measured with a given concentration of the test compound in HIV-infected cells; (ODC)HIV is the optical density measured for the control untreated HIV-infected cells: (ODC)MOCK is the optical density measured for the control untreated mock-infected cells; all optical density values were determined at 540 nm. […] The ratio of CC50 to IC50 was defined as the selectivity index (SI).

HIV-1 = assay: in vitro anti-HIV assay: inhibition of the HIV-induced cytopathic effect in MT-4 cells (MTT); assay type: cell-based; conditions: dose achieving 50% protection of HIV-infected MT-4 cells against cytopathic effect, OD 540 nm
Procedure: A rapid, sensitive and automated assay procedure was used for the in vitro evaluation of anti-HIV agents. An […] T4-cell line, MT-4, which was previously shown (Koyanagi et al., Int. J. Cancer, 36, 445-451, 1985) to be highly susceptible to and permissive for HIV infection, served as the target cell line. Inhibition of the HIV-induced cytopathic effect was used as the end point. The viability of both HIV- and mock-infected cells was assessed spectrophotometrically via the in situ reduction of 3-(4,5-dimethylthiazol-2-yl)-2,5-diphenyltetrazolium bromide (MTT). […] The percent protection achieved by the compound in HIV-infected cells was calculated by the following formula: [formula]
as §1

[2] = 50% cytotoxic concentration, reduces absorbance of mock-infected MT-4 control by 50%, MTT, read-out: CC50

SMILES	CC50 [1] [µM]	IC50 (HIV-1) [µM]	CC50 [1, 2] [µM]
COc1cccc(CCNc2cc(Cc3c(Cl)cccc3Cl)nc(Nc3ccc(C#N)cc3)n2)c1 [Compound 8]	> 100	8.15	–
N#Cc1ccc(Nc2nccc(Nc3c(Cl)cc(C#N)cc3Cl)n2)cc1 [Compound 76]	5.2	0.0033	–
Nc1cc(Cc2c(Cl)cccc2Cl)nc(Nc2ccccc2)n1 [Compound 37]	–	0.443	33.4
N#Cc1ccc(Nc2nc(Cc3c(Cl)cccc3Cl)cc(NCc3ccccc3)n2)cc1 [Compound 12]	55.1	1.68	–
Cc1cc(C#N)cc(C)c1Nc1ccnc(Nc2ccc(C#N)cc2)n1 [Compound 69, 4-[[2-[(cyanophenyl)amino]-4-pyrimidinyl]amino]-3,5-dimethylbenzonitrile]	–	0.0004	4.7
Nc1nc(Cc2c(Cl)cccc2Cl)cc(Nc2ccc(Br)cc2)n1 [Compound 28]	–	0.079	> 20
N#Cc1ccc(Nc2nccc(Nc3c(F)cc(Br)cc3Br)n2)cc1 [Compound 70]	5.8	0.0006	–
CCCC(=O)Nc1cc(Cc2c(Cl)cccc2Cl)nc(Nc2ccc(C#N)cc2)n1 [Compound 22]	12.2	0.035	–
CC(=O)Nc1cc(Cc2c(Cl)cccc2Cl)nc(Nc2ccc(C#N)cc2)n1 [Compound 21]	50.6	0.017	–
N#Cc1ccc(Nc2nc(N)cc(Cc3c(Cl)cccc3Cl)n2)cc1 [Compound 23]	47.9	0.001	–
N#Cc1ccc(Nc2nccc(Nc3c(Cl)cc(OC(F)(F)F)cc3Cl)n2)cc1 [Compound 77]	9.6	0.003	–
Cc1cc(C)c(N(C)c2ccnc(Nc3ccc(C#N)cc3)n2)c(C)c1 [Compound 71]	45.8	0.0063	–
CC(C)c1cc(Br)c(Nc2ccnc(Nc3ccc(C#N)cc3)n2)c(Br)c1 [Compound 62]	8.7	0.0032	–
Clc1cccc(Cl)c1Nc1ccnc(Nc2c(Cl)cccc2Cl)n1 [Compound 92]	> 90	45	–
Nc1nc(Cc2c(Cl)cccc2Cl)cc(Nc2ccc(F)cc2)n1 [Compound 34]	–	0.319	57.8
Cc1ccc(Nc2cc(Cc3c(Cl)cccc3Cl)nc(N)n2)cc1 [Compound 36]	–	0.323	> 100
Nc1cc(Cc2c(Cl)cccc2Cl)nc(Nc2ccc(Cl)cc2)n1 [Compound 29]	–	0.015	> 20
N#Cc1ccc(Nc2nc(Cc3c(Cl)cccc3Cl)cc(NCCO)n2)cc1 [Compound 2]	> 100	0.035	–
N#Cc1ccc(Nc2nccc(Nc3c(Cl)cc(Br)c(Cl)c3Br)n2)cc1 [Compound 78]	0.4	0.0028	–
N#Cc1ccc(Nc2nc(Cc3c(Cl)cccc3Cl)cc(NCC(O)CO)n2)cc1 (stereo not drawn) [Compound 9]	58.6	0.037	–
N#Cc1ccc(Nc2cc(Cc3c(Cl)cccc3Cl)nc(NCCO)n2)cc1 [Compound 40]	–	0.253	40.2
N#Cc1ccc(Nc2cc(N)nc(Cc3c(Cl)cccc3Cl)n2)cc1 [Compound 51]	> 100	0.452	–

SMILES	CC50 [1] [µM]	IC50 (HIV-1) [µM]	CC50 [1, 2] [µM]
Cc1c(N)nc(Nc2ccc(CC#N)cc2)nc1Cc1c(Cl)cccc1Cl [Compound 103]	> 100	0.022	–
Cc1cc(C#N)cc(C)c1Oc1ccnc(Nc2ccc(C#N)cc2)n1 [Compound 81]	> 100	0.0011	–
N#Cc1ccc(Nc2cc(Cc3c(Cl)cccc3Cl)nc(NCCCO)n2)cc1 [Compound 42]	–	0.352	35.5
N#Cc1ccc(Nc2cc(Cc3c(Cl)cccc3Cl)nc(NCCCCO)n2)cc1 [Compound 43]	–	0.603	> 100
CCOC(=O)Nc1cc(Cc2c(Cl)cccc2Cl)nc(Nc2ccc(C#N)cc2)n1 [Compound 20]	36.5	0.026	–
N#Cc1ccc(Nc2nc(Cc3c(Cl)cccc3Cl)cc(NCCOCCO)n2)cc1 [Compound 6]	24.4	0.02	–
Cc1c(N)nc(Nc2ccc(Br)cc2)nc1Cc1c(Cl)cccc1Cl [Compound 49]	–	0.058	45.2
Cc1cc(C)c(Nc2ccnc(Nc3ccc(F)cc3F)n2)c(C)c1 [Compound 97]	13.2	0.032	–
N#Cc1ccc(Nc2nccc(Oc3c(Cl)cc(Cl)cc3Cl)n2)cc1 [Compound 60]	> 100	0.29	–
CC(C)OCCCNc1cc(Cc2c(Cl)cccc2Cl)nc(Nc2ccc(C#N)cc2)n1 [Compound 7]	> 100	0.975	–
Cc1cccc(C)c1Nc1ccnc(Nc2ccc(C#N)cc2)n1 [Compound 57]	0.8	0.0007	–
N#Cc1ccc(Nc2nccc(Sc3c(Cl)cccc3Cl)n2)cc1 [Compound 59]	> 100	0.0012	–
Cc1cc(Cl)cc(C)c1Nc1ccnc(Nc2ccc(C#N)cc2)n1 [Compound 75]	1.9	0.0021	–
Nc1cc(Cc2c(Cl)cccc2Cl)nc(Nc2ccc(Br)cc2)n1 [Compound 27]	–	0.017	> 20
CNc1cc(Cc2c(Cl)cccc2Cl)nc(Nc2ccc(C#N)cc2)n1 [Compound 24]	54	0.02	–
Cc1cc(C)c(Nc2ccnc(Nc3ccc(C#N)cc3)n2)c(C)c1 [Compound 53, 4-[[4-[(2,4,6-trimethyl-phenyl)amino]-2-pyrimidinyl]amino]benzonitrile hydrochloride (1:1)]	–	0.0006	1.3
Cc1cc(C)c(Nc2ccnc(Nc3ccc(C#N)c(O)c3)n2)c(C)c1 [Compound 91]	4.9	0.0025	–
Cc1cc(C)c(Nc2cc(N)nc(Nc3ccc(C#N)cc3)n2)c(C)c1 [Compound 94]	11.1	0.0022	–
Cc1cnc(Nc2ccc(C#N)cc2)nc1Nc1c(C)cc(C#N)cc1C [Compound 83]	–	0.0008	–
Nc1nc(Cc2c(Cl)cccc2Cl)cc(Nc2ccc(Cl)cc2)n1 [Compound 30]	–	0.088	> 20
Cc1cc(C)c(Sc2ccnc(Nc3ccc(C#N)cc3)n2)c(C)c1 [Compound 73]	> 100	0.0036	–
Cc1cc(C(C)(C)C)cc(C)c1Nc1ccnc(Nc2ccc(C#N)cc2)n1 [Compound 80]	8.7	0.011	–

SMILES	CC50 [1] [µM]	IC50 (HIV-1) [µM]	CC50 [1, 2] [µM]
CNc1nc(Cc2c(Cl)cccc2Cl)cc(Nc2ccc(C#N)cc2)n1 [Compound 41]	–	1.99	34.2
Cc1cnc(Nc2ccc(C#N)cc2)nc1Nc1c(C)cc(C(C)(C)C)cc1C [Compound 84]	9.3	0.012	–
Cc1cc(C)c(Nc2nc(Nc3ccc(C#N)cc3)ncc2C)c(C)c1 [Compound 63]	0.3	0.0017	–
Cc1cc(Br)cc(C)c1Nc1ccnc(Nc2ccc(C#N)cc2)n1 [Compound 56]	1.9	0.0023	–
Cc1cc(Cl)cc(Cl)c1Nc1ccnc(Nc2ccc(C#N)cc2)n1 [Compound 68]	1.4	0.001	–
Cc1cc(C)c(Nc2cc(Nc3ccc(C#N)cc3)nc(N)n2)c(C)c1 [Compound 95]	7.7	0.0006	–
Nc1cc(Cc2c(Cl)cccc2Cl)nc(Nc2ccc(F)cc2)n1 [Compound 33]	–	0.042	43.4
Cc1cc(Cl)cc(Cl)c1Oc1ccnc(Nc2ccc(C#N)cc2)n1 [Compound 64]	> 100	0.12	–
Cc1cc(C)c(Nc2ccnc(Nc3ccc(C#N)cc3N)n2)c(C)c1 [Compound 90]	30.8	3.4	–
N#Cc1ccc(Nc2nc(Cc3c(Cl)cccc3Cl)cc(NCCc3cccs3)n2)cc1 [Compound 14]	89	2.18	–
Cc1cc(C)c(Nc2ccnc(Nc3ccc(Cl)cc3)n2)c(C)c1 [Compound 96]	5.8	0.0031	–
COc1ccc(CCNc2cc(Cc3c(Cl)cccc3Cl)nc(Nc3ccc(C#N)cc3)n2)cc1 [Compound 10]	> 100	2.53	–
N#CCCNc1cc(Cc2c(Cl)cccc2Cl)nc(Nc2ccc(C#N)cc2)n1 [Compound 19]	53.6	0.006	–
N#Cc1ccc(Nc2nc(Cc3c(Cl)cccc3Cl)cc(NCCCCO)n2)cc1 [Compound 1]	49.7	0.027	–
Nc1nc(Cc2c(Cl)cccc2Cl)cc(Nc2ccccc2)n1 [Compound 38]	–	2.45	32.4
N#Cc1ccc(Nc2cc(Oc3c(Cl)cccc3Cl)nc(N)n2)cc1 [Compound 50]	52	0.518	–
Nc1nc(Cc2c(Cl)cccc2Cl)cc(Nc2ccc(Br)cn2)n1 [Compound 31]	–	0.024	86.8
CCCc1cc(Br)c(Nc2nc(Nc3ccc(C#N)cc3)ncc2C)c(Br)c1 [Compound 87]	2.2	0.0031	–
Cc1cc(C)c(Nc2nccc(Nc3ccc(C#N)cc3)n2)c(C)c1 [Compound 93]	48.1	0.0035	–
N#Cc1ccc(Nc2nc(Cc3c(Cl)cccc3Cl)cc(NCCCN3CCCC3=O)n2)cc1 [Compound 5]	56.2	–	–
